Key:
Type in all cases: cell-based, human
[1] = tested on: TNFα release in d-U937 cells; assay: LPS-induced TNFα release in d-U937 cells; conditions: Homo sapiens, dU937, relative to 10 μg/mL BIRB796, read-out: LPS/TNFα REC50 d-U937
In short: (§1)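 PMA-differentiated (100 ng/ml, 48–72 hr) U937 macrophage-type cells pre-incubated 2 hr with compound, then stimulated 4 hr with 0.1 μg/mL E. coli O111:B4 LPS; supernatant TNFα and IL-8 measured by sandwich ELISA. TNFα inhibition expressed relative to 10 μg/mL BIRB796, giving REC50; IL-8 inhibition versus vehicle, giving IC50.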

[2] = tested on: Differentiated U937 cells; assay: Cell viability MTT assay; conditions: negative = apparent increase in viability; for MTT Assay (Viability) 4 h d-U937, percentage loss of cell viability: 4 hr in 5% FCS; for MTT Assay (Viability) 24 h d-U937, percentage loss of cell viability: 24 h in 10% FCS
In short: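 Differentiated U937 cells pre-incubated with compound either 4 hr in 5% FCS or 24 h in 10% FCS, then 1 hr MTT. Formazan dissolved in DMSO, absorbance at 550 nm. Percentage viability loss relative to 0.5% DMSO vehicle; apparent increases appear as negative percentages.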

[3] = tested on: IL-8 release in d-U937 cells; assay: LPS-induced IL-8 release in d-U937 cells; conditions: Homo sapiens, dU937
In short: as §1

[4] = tested on: TNFα release in THP-1 cells; assay: LPS-induced TNFα release in THP-1 cells; conditions: Homo sapiens
In short: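 Human monocytic THP-1 cells stimulated with 3 μg/mL E. coli LPS for 4 hr; supernatant TNFα measured by sandwich ELISA. Inhibition at each concentration versus vehicle control, IC50 from concentration-response curve.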

SMILES	EC50 [1] [nM]	MTT Assay (Viability) 4 h d-U937, percentage loss of cell viability [2] [%]	MTT Assay (Viability) 24 h d-U937, percentage loss of cell viability [2] [%]	IC50 [3] [nM]	IC50 [4] [nM]
COc1ccc(-n2nc(C(C)(C)C)cc2NC(=O)Nc2ccc(Oc3ccnc(NC(=O)N4CCCC4)c3)c(Cl)c2Cl)cc1 [Example 76, N-(4-(4-(3-(3-(tert-butyl)-1-(4-methoxyphenyl)-1H-pyrazol-5-yl)ureido)-2,3-dichlorophenoxy)pyridin-2-yl)pyrrolidine-1-carboxamide]	0.9	−25.5	27.2	0.8	0.6
CNC(=O)Nc1cc(Oc2ccc(NC(=O)Nc3cc(C(C)(C)C)nn3-c3ccc(OC)cc3)c(Cl)c2Cl)ccn1 [Example 9, N-Methyl-N′-4-(4-(3-(3-tert-butyl-1-p-anisyl-1H-pyrazol-5-yl)ureido)-2,3-dichlorophen-1-yloxy)pyridin-2-ylurea]	0.2	−26.8	65.3	0.8	1

From patent US10000471B2, “Pyrazole P38 map kinase inhibitors” (Respivert Limited, priority 2010, dated 2018)
